In US5182300A, “Furosemide salts” (Roussel Uclaf, priority 1989, dated 1993):
Where a name gives a salt, the structure may show the parent alone.

Columns and labels:
[1] = initial measurement of the pH of the solution; format: physicochemical
[2] = system: atopic asthmatic patients; settings: aerosol; bronchospasms induced by physical exercises, ultrasonic fogs and immunological stimulations; 10 mg/ml sodium salt solution inhaled for 15 to 20 minutes; cited from earlier work

| Compound | pH (initial measurement) ([1]; Sol. 1, water, 97.2 mg/ml) | pH (initial measurement) ([1]; Sol. 2, physiol. sol., 184.4 mg/ml) | pH (initial measurement) ([1]; Sol. 3, water, 275.3 mg/ml) | pH (initial measurement) ([1]; Sol. 4, water, 125.0 mg/ml, kept at 60° C.) | pH (initial measurement) ([1]; Sol. 5, water, 125.0 mg/ml, kept at 25° C. away from the light) | pH (initial measurement) ([1]; Sol. 6, water, 90.4 mg/ml) | pH (initial measurement) ([1]; Sol. 7, water containing 4% by weight of mannitol, 72.1 mg/ml) | prevention of bronchospasms [2] |
| --- | --- | --- | --- | --- | --- | --- | --- | --- |
| NS(=O)(=O)c1cc(C(=O)O)c(NCc2ccco2)cc1Cl [furosemide salt of L-lysine, L-lysine salt of furosemide] | 7.00 | 7.09 | 7.32 | 7.06 | 7.06 | 6.95 | 7.06 | – |
| NS(=O)(=O)c1cc(C(=O)O)c(NCc2ccco2)cc1Cl [furosemide, 4-chloro-N-furyl-5-sulfamoyl-anthranylic acid] | – | – | – | – | – | – | – | prevent bronchospasms |
